Data as given in US5620864A, “Acceptor for fucosyl transferase” (Health Research, Inc., priority 1992, dated 1997).
Values joined by “and” are separate entries in the source; they are usually repeats but may differ in a detail not shown here. Equal entries are not always repeated.

Key:
[1] = target: T1, serum α1,3-L-fucosyltransferase (Homo sapiens, UniProt P51993); experiment: Assay of α1,3-fucosyltransferase with various synthetic acceptors, ovarian cancer sera as enzyme source; type: biochemical; details: for [14C] Fucose Incorporated (CPM): acceptor 0.3 mM, 37° C. 18 h
T1 construct: Sera were collected from healthy females and ovarian cancer patients; from tissue; host or cells: blood serum of ovarian cancer patients and healthy females
T1 sequence (P51993 35-359 limits assumed): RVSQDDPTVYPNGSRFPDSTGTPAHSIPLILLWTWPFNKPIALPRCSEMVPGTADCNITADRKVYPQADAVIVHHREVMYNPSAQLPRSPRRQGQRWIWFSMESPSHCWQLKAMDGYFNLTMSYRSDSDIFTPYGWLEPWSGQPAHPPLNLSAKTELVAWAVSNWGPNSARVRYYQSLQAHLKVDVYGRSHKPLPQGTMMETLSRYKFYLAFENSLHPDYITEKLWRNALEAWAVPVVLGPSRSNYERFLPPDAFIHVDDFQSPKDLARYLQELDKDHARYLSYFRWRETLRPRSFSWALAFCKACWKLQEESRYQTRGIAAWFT
Protocol: Sera were collected from healthy females and ovarian cancer patients admitted to Roswell Park Cancer Institute in Buffalo, N.Y., USA. Ovarian tumor tissues were obtained during surgical procedures from patients with ovarian cancer. Both sera and tissues were stored frozen at -70° C. until use.
(§1) An incubation mixture contained 50 mM HEPES-NaOH, pH 7.5, 5 mM MnC12, 7 mM ATP, 3 mM NaN3, the acceptor 0.3 mM (for serum enzyme) or 3.0 mM (for tumor enzyme), 0.125 μCi of GDP-[U-^14 C] Fuc (Sp. Act. 216 mCi/mmol) and enzyme in a total volume of 0.10 ml; the control incubation mixture had everything except the acceptor. At the end of incubation at 37° C. for 18 h, the mixture was diluted with 1 ml water and passed through Dowex-1-C1 column (1 ml in a Pasteur pipet). The column was washed twice with 1 ml water; the breakthrough and wash, which contained the [^14 C] fucosylated neutral acceptor, were collected together in a scintillation vial and counted for radioactivity using the scintillation coctail 3a70 (Research Products International, Mount Prospects, Ill.) and Beckman LS9000. The Dowex column was then eluted successively with 3 ml each of 0.1M and 0.2M NaCl; these eluates which contained the [^14 C] fucosylated sulfated acceptors, were counted for radioactivity as before. Corrections were made by subtracting the radioactivity in the water and NaCl eluates of the control incubation mixture from the corresponding test fractions. The duplicate runs of samples gave almost identical values, the difference being <5%.
The activity of serum α1,3-fucosyltransferase was measured with the specific substrate 2'-methyl LacNAc and compared with the ability of several other synthetic substrates to act as an acceptor of fucose.
When the structure of the acceptor 2'-methyl LacNAc was modified by replacing the methyl group with sulfate group in C-2', 3', 6' or 6 position and tested their ability to act as the acceptor of fucose, the following novel findings emerged. […] The β-benzyl glycoside of 3' sulfo LacNAc was quite active (168.4%) but less than the parent compound.

[2] = test system: α1,3-L-fucosyltransferase of the particulate fraction of ovarian tumor; experiment: Assay of α1,3-fucosyltransferase with synthetic acceptors, ovarian tumor particulate fraction; type: biochemical, human; details: for Relative Percent: 2'-methyl LacNAc = 100; for [14C] Fucose Incorporated (CPM): acceptor 3.0 mM, 37° C. 18 h
Protocol: FIG. 2 The scheme for the preparation of the particulate and soluble fractions of human ovarian tumor.
as §1
This finding is quite different from what we found with the soluble fraction, where α1,4-fucosyltransferase activity seems to be greater than α1,3-fucosyltransferase activity. […] The different nature of the above enzymes was made further clear, when sulfated derivatives of LacNAc was tested as acceptors.

[3] = test system: α1,3-L-fucosyltransferase of the soluble fraction of human ovarian tumor; experiment: Assay of α1,3-fucosyltransferase with synthetic acceptors, partially purified enzyme of ovarian tumor soluble fraction; type: biochemical; details: for [14C] Fucose Incorporated (CPM): acceptor 3.0 mM, 37° C. 18 h
Protocol: as §1
As shown in the scheme set forth in FIG. 2, the α-L-fucosidase-free extract of the tissue (40 g), after concentration by 80% (NH4)2 SO4 precipitation was fractionated on bovine IgG glycopep-Sepharose in batches of 25 ml. After washing the column with the equilibration buffer, the bound enzyme was eluted with 1 M NaCl in the same buffer. The protein positive fractions were pooled and processed as shown in the scheme 2.0 ml of the above preparation was loaded on a Sephacryl S-200 column (Superfine:2.6 cm×88.0 cm) equilibrated at 4° C. with 50 mM Tris-HC1, pH 7.0 containing 0.15M NaCl and 0.1% Triton X-100 and eluted with the same buffer. Fractions of 3.0 ml were collected. The fucosyltransferase activity was located in the effluent fractions, by assaying first every 5th fraction and then obtaining the activity profile by assaying the alternate fractions in that range, using 2'-fucosyl LacNAc as the acceptor. […] Its elution position, which is slightly later than BSA, run separately on the same column, indicates its molecular weight as <67,000 daltons. […] The enzyme has been purified 66 fold over the soluble extract with a recovery of 6.2%. The enzyme at this stage lost its activity either kept frozen at -20° C. or left at 4° C. for more than a week. However, the enzyme at the end of the previous step was fairly stable for at least two months at 4° C. So this preparation of enzyme was used in acceptor ability comparison studies.
When α1,3-fucosyltransferase activity of the partially purified enzyme preparation from the soluble portion of ovarian tumor was measured and compared with the activity of other acceptors, the following results were obtained. 2'-methyl LacNAc, LacNAc and Galβ1, 3GlcNAc were respectively 100.0%, 60.6% and 565.5% active, indicating the presence of both α1,3 and α1,4 fucosyltransferase activities in this preparation.

SMILES	Relative Percent ([1]; 2'-methyl LacNAc = 100) [%]	[14C] Fucose Incorporated (CPM) [1] [CPM]	Relative Percent [2] [%]	[14C] Fucose Incorporated (CPM) [2] [CPM]	Relative Percent ([3]; 2'-methyl LacNAc = 100) [%]	[14C] Fucose Incorporated (CPM) [3] [CPM]	Relative Percent ([1]; 2'-methyl LacNAc = 100, listed as 3-Sulfo Galβ1, 3GlcNAcβ-O-Bn)	Relative Percent ([3]; 2'-methyl LacNAc = 100, listed as 3-sulfo Galβ1,3GlcNAcβ-O-Bn) [%]	Relative Percent ([3]; 2'-methyl LacNAc = 100, listed as β-benzyl glycoside of 3-sulfoGalβ1, 3 GlcNAc) [%]	Relative Percent ([3]; 2'-methyl LacNAc = 100, listed as 6-sulfo LacNAc)	Relative Percent ([3]; 2'-methyl LacNAc = 100, listed as β-benzyl glycoside of Galβ1, 3 Glc NAc) [%]	Relative Percent ([3]; 2'-methyl LacNAc = 100, listed as β-benzyl glycoside of Galβ1,3GlcNAc) [%]	Relative Percent ([3]; 2'-methyl LacNAc = 100, listed as Galβ1, 3 GlcNAc) [%]	Relative Percent ([3]; 2'-methyl LacNAc = 100, listed as Galβ1, 3GlcNAc) [%]
CC(=O)N[C@H]1C(O)O[C@H](CO)[C@@H](O[C@@H]2O[C@H](CO)[C@H](O)[C@H](O)[C@H]2O)[C@@H]1O[C@@H]1O[C@@H](C)[C@@H](O)[C@@H](O)[C@@H]1O (stereo partly shown) [3-Fucosyl LacNAc]	4.7	82	3.7	1801	1.9	144	–	–	–	–	–	–	–	–
CC(=O)N[C@H]1[C@H](O[C@H]2[C@@H](O)[C@@H](CO)O[C@@H](Oc3ccc([N+](=O)[O-])cc3)[C@@H]2O)O[C@H](CO)[C@@H](O[C@@H]2O[C@H](CO)[C@H](O)[C@H](O)[C@H]2O)[C@@H]1O [LacNAcβ1,3Ga1β-O--PNP]	166.8	2886	70.0	33759	87.0	6432	–	–	–	–	–	–	–	–
CC(=O)N[C@H]1C(O)O[C@H](CO)[C@@H](O[C@@H]2O[C@H](CO)[C@H](O)[C@H](O)[C@H]2O[C@@H]2O[C@@H](C)[C@@H](O)[C@@H](O)[C@@H]2O)[C@@H]1O (stereo partly shown) [2'-Fucosyl LacNAc, 2'-Fucosyl N-acetyllactosamine]	253.1	4379	144.7	69824	436.1	32235	–	–	–	–	–	–	–	–
CC(=O)N[C@H]1[C@H](OCc2ccccc2)O[C@H](CO)[C@@H](O)[C@@H]1O[C@@H]1O[C@H](CO)[C@H](O)[C@H](OS(=O)(=O)O)[C@H]1O [3-SulfoGa1β1,3G1cNAcβ-O--Bn, Benzyl 3-0-(sodium β-D-Galactopyranosy 3-Sulfate)-2-acetamido-2-deoxy-β-D-Glucopyranoside]	0	0	2.9	1382	415.4	30704	did not show any activity	415.4	415	–	–	–	–	–
CC(=O)N[C@H]1C(O)O[C@H](COS(=O)(=O)O)[C@@H](O[C@@H]2O[C@H](CO)[C@H](O)[C@H](O)[C@H]2O)[C@@H]1O (stereo partly drawn) [6-Sulfo LacNAc, β-D-GALACTOPYRANOSYL-(1→4)-SODIUM 2-ACETAMIDO-2-DEOXY-D-GLUCOPYRANOSE 6-SULFATE]	172.4	2983	53.3	25740	272.6	20148	–	–	–	272% and 272.6%	–	–	–	–
CC(=O)N[C@H]1C(O)O[C@H](CO)[C@@H](O[C@@H]2O[C@H](CO)[C@H](O)[C@H](O)[C@H]2O)[C@@H]1O (stereo partly shown) [LacNAc]	93.4	1615	61.8	29842	60.6	4480	–	–	–	–	–	–	–	–
CC(=O)N[C@H]1C(O)O[C@H](CO)[C@@H](O)[C@@H]1O[C@@H]1O[C@H](CO)[C@H](O)[C@H](O)[C@H]1O (stereo partly drawn) [Ga1β1,3G1cNAc]	13.1	227	34.2	16511	565.5	41802	–	–	–	–	–	–	566	565.5
CO[C@@H]1O[C@H](CO)[C@H](O)[C@H](O[C@@H]2O[C@H](CO)[C@@H](O)[C@H](O[C@@H]3O[C@H](CO)[C@H](O)[C@H](O)[C@H]3O)[C@H]2NC(C)=O)[C@H]1O [Ga1β1,3G1cNAcβ1,3Ga1β-O--Me]	42.7	739	42.6	20559	–	–	–	–	–	–	–	–	–	–

Results, then the compound that gave them:

Relative Percent ([1]; 2'-methyl LacNAc = 100) [%]	[14C] Fucose Incorporated (CPM) [1] [CPM]	Relative Percent [2] [%]	[14C] Fucose Incorporated (CPM) [2] [CPM]	Relative Percent ([3]; 2'-methyl LacNAc = 100) [%]	[14C] Fucose Incorporated (CPM) [3] [CPM]	Relative Percent ([1]; 2'-methyl LacNAc = 100, listed as 3-Sulfo Galβ1, 3GlcNAcβ-O-Bn)	Relative Percent ([3]; 2'-methyl LacNAc = 100, listed as 3-sulfo Galβ1,3GlcNAcβ-O-Bn) [%]	Relative Percent ([3]; 2'-methyl LacNAc = 100, listed as β-benzyl glycoside of 3-sulfoGalβ1, 3 GlcNAc) [%]	Relative Percent ([3]; 2'-methyl LacNAc = 100, listed as 6-sulfo LacNAc)	Relative Percent ([3]; 2'-methyl LacNAc = 100, listed as β-benzyl glycoside of Galβ1, 3 Glc NAc) [%]	Relative Percent ([3]; 2'-methyl LacNAc = 100, listed as β-benzyl glycoside of Galβ1,3GlcNAc) [%]	Relative Percent ([3]; 2'-methyl LacNAc = 100, listed as Galβ1, 3 GlcNAc) [%]	Relative Percent ([3]; 2'-methyl LacNAc = 100, listed as Galβ1, 3GlcNAc) [%]	SMILES
358.8	6207	132.9	64223	111.6	8249	–	–	–	–	–	–	–	–	CC(=O)N[C@H]1[C@H](OCc2ccccc2)O[C@H](CO)[C@@H](O[C@@H]2O[C@H](CO)[C@H](O)[C@H](O)[C@H]2O)[C@@H]1O [LacNAcβ-O--Bn]
168.4	2913	33.3	16062	183.8	13585	–	–	–	–	–	–	–	–	CC(=O)N[C@H]1[C@H](OCc2ccccc2)O[C@H](CO)[C@@H](O[C@@H]2O[C@H](CO)[C@H](O)[C@H](OS(=O)(=O)O)[C@H]2O)[C@@H]1O [3'-Sulfo LacNAcβ-O--Bn, Benzyl 4-0-(sodium β-D-Galactopyranosyl 3-Sulfate)-2-acetamido-2-deoxy-β-D-Glucopyranoside]
21.7	376	37.8	18221	1004.5	74260	–	–	–	–	1005	1004.5	–	–	CC(=O)N[C@H]1[C@H](OCc2ccccc2)O[C@H](CO)[C@@H](O)[C@@H]1O[C@@H]1O[C@H](CO)[C@H](O)[C@H](O)[C@H]1O [Ga1β1,3G1cNAcβ-O--Bn]
9.5	164	–	–	0	0	–	–	–	–	–	–	–	–	CC(=O)N[C@H]1[C@@H](Oc2ccccc2[N+](=O)[O-])O[C@H](CO[C@@H]2O[C@H](CO)[C@@H](O)[C@H](O)[C@H]2NC(C)=O)[C@H](O)[C@@H]1O [G1cNAcβ1,6Ga1NAcα-O--ONp]
